In this experiment the test system is BDF1 mice, P388 leukemia ip, median survival T/C. Description: NCI In Vivo Anticancer Drug Screen. Data for tumor model P388 Leukemia (intraperitoneal) in B6D2F1 (BDF1) mice. The settings on record: endpoint: median survival time, higher = longer survival. Put shortly: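 Transplantable tumour in mice; compound vs vehicle dosing; survival scored; ratio of treated to control reported.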

Where [1] appears, read: dose: 25.0 mg/kg/injection, schedule: Q01DX009 (ip), vehicle: saline with Tween-80.
Where [2] appears, read: dose: 50.0 mg/kg/injection, schedule: Q01DX009 (ip), vehicle: saline with Tween-80.
The mark [3] stands for this setting: dose: 100.0 mg/kg/injection, schedule: Q01DX009 (ip), vehicle: saline with Tween-80.
The mark [4] stands for this setting: dose: 200.0 mg/kg/injection, schedule: Q01DX009 (ip), vehicle: saline with Tween-80.
[5] abbreviates: dose: 12.5 mg/kg/injection, schedule: Q01DX009 (ip), vehicle: saline with Tween-80.
Setting [6] is: dose: 25.0 mg/kg/injection, schedule: Q01DX009 (ip), vehicle: saline.
The mark [7] stands for this setting: dose: 50.0 mg/kg/injection, schedule: Q01DX009 (ip), vehicle: saline.
[8] abbreviates: dose: 200.0 mg/kg/injection, schedule: Q04DX003 (ip), vehicle: saline.
The mark [9] stands for this setting: dose: 25.0 mg/kg/injection, schedule: Q04DX003 (ip), vehicle: saline.
[10] abbreviates: dose: 50.0 mg/kg/injection, schedule: Q04DX003 (ip), vehicle: saline.

SMILES strings stand for the structures. Inconclusive results and toxic doses are left out.

Regarding `Cc1ccccc1C[P+](c1ccccc1)(c1ccccc1)c1ccccc1`, the T/C (dose: 0.39 mg/kg/injection, schedule: Q01DX009 (ip), vehicle: Klucel (hydroxypropylcellulose) (HPC)) was 100 % of control; the T/C (dose: 0.39 mg/kg/injection, schedule: Q04DX003 (ip), vehicle: Klucel (hydroxypropylcellulose) (HPC)) was 100 % of control; the T/C (dose: 0.78 mg/kg/injection, schedule: Q01DX009 (ip), vehicle: Klucel (hydroxypropylcellulose) (HPC)) is 108 % of control; the T/C (dose: 0.78 mg/kg/injection, schedule: Q04DX003 (ip), vehicle: Klucel (hydroxypropylcellulose) (HPC)) was 122 % of control; the T/C (dose: 1.56 mg/kg/injection, schedule: Q01DX009 (ip), vehicle: Klucel (hydroxypropylcellulose) (HPC)) was 112 % of control; the T/C (dose: 1.56 mg/kg/injection, schedule: Q04DX003 (ip), vehicle: Klucel (hydroxypropylcellulose) (HPC)) is 113 % of control. Besides, the T/C is 150 % of control (dose: 3.12 mg/kg/injection, schedule: Q01DX009 (ip), vehicle: saline); 104 % of control (dose: 3.5 mg/kg/injection, schedule: Q04DX003 (ip), vehicle: Klucel (hydroxypropylcellulose) (HPC)); 113 % of control (dose: 13.2 mg/kg/injection, schedule: Q04DX003 (ip), vehicle: saline with Tween-80); 104 % of control (dose: 30.0 mg/kg/injection, schedule: Q04DX003 (ip), vehicle: saline with Tween-80).
For `Oc1ccc(Cl)cc1Br`, the T/C under setting [1] was 110 % of control, the T/C under setting [2] was 115 % of control and the T/C under setting [3] is 110 % of control.
Take `CCOC(=O)Sc1ncnc2nc[nH]c12`: the T/C under setting [3] is 109 % of control and the T/C under setting [4] was 90 % of control.
Consider `Cc1ccc(C)c(CCCC(=O)O)c1`, for which the T/C under setting [3] is 95 % of control; the T/C (dose: 100.0 mg/kg/injection, schedule: Q04DX003 (ip), vehicle: saline with Tween-80) is 100 % of control; the T/C under setting [4] was 109 % of control; the T/C (dose: 200.0 mg/kg/injection, schedule: Q04DX003 (ip), vehicle: saline with Tween-80) is 104 % of control; the T/C (dose: 400.0 mg/kg/injection, schedule: Q04DX003 (ip), vehicle: saline with Tween-80) was 108 % of control.
`CCOc1ccc2nnnn2n1`: the T/C was 100 % of control (dose: 62.5 mg/kg/injection, schedule: Q01DX009 (ip), vehicle: saline) and 97 % of control (dose: 250.0 mg/kg/injection, schedule: Q01DX009 (ip), vehicle: saline).
Take `CC1(C)OC(COS(C)(=O)=O)C(COS(C)(=O)=O)O1` (centres undefined): the T/C by setting is: (dose: 100.0 mg/kg/injection, schedule: Q04DX002 (ip), vehicle: saline with Tween-80) 101 % of control; (dose: 200.0 mg/kg/injection, schedule: Q04DX002 (ip), vehicle: saline with Tween-80) 104 % of control; (dose: 400.0 mg/kg/injection, schedule: Q04DX002 (ip), vehicle: saline with Tween-80) 104 % of control.
For the molecule `CC(=O)C1=CC(=O)NC(=O)C1C(=O)CC(C)C` (centres undefined), the T/C reads like this: (dose: 1.56 mg/kg/injection, schedule: Q01DX009 (ip), vehicle: saline + alcohol) 115 % of control; (dose: 3.13 mg/kg/injection, schedule: Q01DX009 (ip), vehicle: saline + alcohol) 123 % of control; (dose: 6.25 mg/kg/injection, schedule: Q01DX009 (ip), vehicle: other) 118 % of control; (dose: 6.25 mg/kg/injection, schedule: Q01DX009 (ip), vehicle: saline + alcohol) 106 % of control.
Turning to `Cc1ccc(CC2c3ccccc3Nc3ccccc32)cc1`, the T/C by setting is: (dose: 100.0 mg/kg/injection, schedule: Q01DX001 (ip), vehicle: saline with Tween-80) 86 % of control; (dose: 200.0 mg/kg/injection, schedule: Q01DX001 (ip), vehicle: saline with Tween-80) 86 % of control; (dose: 400.0 mg/kg/injection, schedule: Q01DX001 (ip), vehicle: saline with Tween-80) 88 % of control.
As for `CCCC(C(=O)OCCN1CCCC12CCCCC2)C1CCCC1` (centres undefined), the T/C is, setting by setting: under setting [5], 107 % of control; under setting [1], 108 % of control; under setting [2], 119 % of control.
Take `CN1CCN(C(=O)N2c3ccccc3Sc3ccccc32)CC1`: the T/C reads like this: (dose: 12.5 mg/kg/injection, schedule: Q01DX009 (ip), vehicle: saline) 100 % of control; under setting [6], 110 % of control; under setting [7], 100 % of control; under setting [8], 100 % of control.
For `c1cc2c(c(NC3=NCCO3)c1)CCCC2`, the T/C (dose: 37.5 mg/kg/injection, schedule: Q01DX009 (ip), vehicle: saline with Tween-80) is 113 % of control; the T/C (dose: 75.0 mg/kg/injection, schedule: Q01DX009 (ip), vehicle: saline with Tween-80) was 118 % of control; the T/C (dose: 150.0 mg/kg/injection, schedule: Q01DX009 (ip), vehicle: saline with Tween-80) was 120 % of control.
`C[N+]1(C)N=C([O-])N(c2ccc([N+](=O)[O-])cc2)C1=O`: the T/C was 90 % of control under setting [2] and 99 % of control under setting [3].
Regarding `O=Cc1nc2ccccc2[nH]1`, the T/C was 108 % of control under setting [5], 101 % of control under setting [1], 103 % of control under setting [2] and 111 % of control under setting [3].
With `CC(=O)c1cccc([N+](=O)[O-])c1`, the T/C by setting is: (dose: 100.0 mg/kg/injection, schedule: Q04DX003 (ip), vehicle: other) 100 % of control; (dose: 200.0 mg/kg/injection, schedule: Q04DX003 (ip), vehicle: other) 104 % of control; (dose: 400.0 mg/kg/injection, schedule: Q04DX003 (ip), vehicle: other) 90 % of control.
Regarding `N#C/C(C(=N)c1ccccc1)=C1\SS/C(=C(\C#N)C(=N)c2ccccc2)S1`, the T/C (dose: 1.5 mg/kg/injection, schedule: Q01DX009 (ip), vehicle: saline with Tween-80) is 101 % of control.
For the molecule `COc1ccc(/C=C/C(C)=O)cc1OC`, the T/C under setting [6] was 94 % of control; the T/C under setting [9] was 107 % of control; the T/C under setting [7] was 99 % of control; the T/C under setting [10] is 106 % of control; the T/C (dose: 100.0 mg/kg/injection, schedule: Q01DX009 (ip), vehicle: saline) is 110 % of control; the T/C (dose: 100.0 mg/kg/injection, schedule: Q04DX003 (ip), vehicle: saline) was 105 % of control. Also, the T/C was 103 % of control (dose: 200.0 mg/kg/injection, schedule: Q01DX009 (ip), vehicle: saline); 100 % of control under setting [8]; 108 % of control (dose: 400.0 mg/kg/injection, schedule: Q01DX009 (ip), vehicle: saline); 107 % of control (dose: 400.0 mg/kg/injection, schedule: Q04DX003 (ip), vehicle: saline).
With `Cc1ccc(C[N+](C)(C)C)c2ccccc12`, the T/C reads like this: (dose: 12.5 mg/kg/injection, schedule: Q04DX003 (ip), vehicle: saline) 107 % of control; under setting [9], 105 % of control; under setting [10], 96 % of control.
For `C1CCC2(CC1)SSC1(CCCCC1)S2`, the T/C by setting is: (dose: 50.0 mg/kg/injection, schedule: Q01DX009 (ip), vehicle: other) 104 % of control; (dose: 100.0 mg/kg/injection, schedule: Q01DX009 (ip), vehicle: other) 100 % of control; (dose: 200.0 mg/kg/injection, schedule: Q01DX009 (ip), vehicle: other) 95 % of control.
As to `C=Cn1ccnc1C(O)(c1ccc(Cl)cc1)c1ccc(Cl)cc1`, the T/C under setting [3] is 116 % of control.

Values taken from PubChem BioAssay AID328 (DTP/NCI, 2004).
